Experimental data from PMC6662923 (Chemical research in toxicology, 2018).

How the values were obtained:
[1] = ref Table S4; cited from earlier work
male Swiss Webster mice = assay: Lethality assay in mice; settings: for Time of most overdose events after drug exposure: bolus iv injection
[2] = human liver microsomes, 2 h incubation; cited from earlier work
Lethality assay in mice = settings: male, Swiss Webster, mouse, in vivo, iv
mice = test system: mice; set-up: unit not given beside the values; settings: literature value for LD50 in mice, ref not given; cited from earlier work
[3] = post-mortem toxicology reports; cited from earlier work
murine μ-OR = settings: cited from earlier work

Compound	Solubility in aqueous solution [1]	Time of most overdose events after drug exposure (male Swiss Webster mice) [min]	Observations after oral dosing (male Swiss Webster mice; oral, no deaths observed)	Conversion to mitragynine [2] [%]	LD50 at 24 h (Lethality assay in mice) [mg/kg]	LD50 iv, literature value (mice)	LD50 oral (male Swiss Webster mice; oral, doses given in mg/kg)	Reported urine concentrations in overdose deaths involving Kratom [3] [µg/mL]	Mode of binding at the murine μ-OR (murine μ-OR)
CC[C@@H]1CN2CC[C@@]3(O)C(=Nc4cccc(OC)c43)[C@@H]2C[C@@H]1/C(=C\OC)C(=O)OC [7-hydroxymitragynine, 7-Hydroxymitragynine]	low solubility	≤ 10	severe respiratory depression and seizures were observed	45					
CC(=O)Oc1ccc2c3c1O[C@H]1[C@@H](OC(C)=O)C=C[C@H]4[C@@H](C2)N(C)CC[C@@]341 [heroin]					23.7	21.8			
mitragynine	low solubility	≤ 10					547.7	0.167 to 1.2	competitive antagonist
